# Assay results published in US20260055143A1, “HIGH AFFINITY VARIANTS OF SH2 DOMAINS” (Axoiya Inc., priority 2023, published 2026).
# System: PPPT{pTyr}TEVDP
# Assay: Competitive ELISA, Ptn11_C variants
# Type: binding
# Description: Competitive and non-competitive phage ELISAs were performed as previously described with minor modifications to the protocol. Peptide sequences used for these analyses can be found in Table 4.
# Streptavidin (50 ng/well in TBS (50 mM Tris-HCl pH 8.0, 150 mM NaCl) was coated onto MAXISORP plates (Thermo Scientific). Phage binding was detected using HRP conjugated anti-M13 secondary antibody (1/2000 dilution, GE Healthcare) in TBS buffer containing 0.05% Tween-20 (TBT buffer). Phage binding was detected using the 3,3′,5,5′-tetramethylbenzidine (TMB) (Thermo Fisher Scientific) chromogenic substrate. Plates were read using a PowerWave XS microplate reader (BioTek).
# Competitive phage-ELISAs were used to determine binding affinity of SH2 superbinders for their cognate target. ELISAs were performed as previously described, biotinylated and phosphorylated peptides were immobilized on plates at the concentration of 0.2 μM, and available binding sites on streptavidin were blocked by adding 25 μl/well of 50 μM D-biotin in TBS. […] Data were plotted using Prism 6 software (GraphPad Software Inc) and affinity of SH2 domains was inferred from determination of the half maximal inhibition concentration (IC50).
# Peptides listed in Table 5 were used to assay for binding affinity of each corresponding SH2 domain.
substance,measurement,setting,value
"Ptn11_C^wt: wild-type PTN11_C SH2 domain, SEQ ID 57",change in affinity,with either the sSrc or sFes graft,no improvement in affinity
same,change in binding,αA-2-Arg mutation alone,not sufficient to enhance the binding
